The values that follow come from patent US8735406B2, “8-oxodihydropurine derivative” (Dainippon Sumitomo Pharma Co., Ltd., priority 2009, dated 2014).

Each structure is given as a SMILES string.

In this experiment the target is T1, FAAH (Rattus norvegicus, UniProt P97612).
T1 construct: Preparation of Rat Brain Membranes Preparations (FAAH Enzyme Solution); from tissue; host or cells: rat cerebrum (brain membrane preparation)
T1 sequence (P97612 1-579): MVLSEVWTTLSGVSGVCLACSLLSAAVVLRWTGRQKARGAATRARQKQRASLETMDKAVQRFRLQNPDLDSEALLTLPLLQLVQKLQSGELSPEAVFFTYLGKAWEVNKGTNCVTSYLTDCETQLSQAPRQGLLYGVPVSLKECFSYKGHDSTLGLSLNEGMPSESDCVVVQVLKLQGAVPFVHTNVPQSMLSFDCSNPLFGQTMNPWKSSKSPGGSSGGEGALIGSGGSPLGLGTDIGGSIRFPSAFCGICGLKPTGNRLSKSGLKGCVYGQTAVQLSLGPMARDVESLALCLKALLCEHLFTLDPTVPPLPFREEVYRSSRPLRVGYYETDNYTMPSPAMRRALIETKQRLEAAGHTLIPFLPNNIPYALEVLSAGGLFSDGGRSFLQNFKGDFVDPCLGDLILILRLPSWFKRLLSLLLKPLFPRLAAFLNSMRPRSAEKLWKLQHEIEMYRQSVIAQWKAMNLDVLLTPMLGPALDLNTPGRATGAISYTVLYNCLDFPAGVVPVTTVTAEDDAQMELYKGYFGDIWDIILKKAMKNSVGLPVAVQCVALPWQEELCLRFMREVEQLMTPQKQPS
Put plainly: Determination of FAAH inhibitory activity in rat (rat brain membrane preparations, [3H]-anandamide hydrolysis). The class given is biochemical. To be noted: rat brain membrane preparations; for inhibition at 0.1 µM: 100 nM test substance, read-out: FAAH Inhibition, Inhibition Rate at 100 nM; for IC50: test substance 0.1 nM to 1 μM, read-out: FAAH Inhibition IC50. The essentials: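 Rat cerebrum membranes (100 μg/mL protein) preincubated 10 min at 37 °C with compound (1% DMSO) in pH 7.6 Tris buffer with 1.5% BSA. Substrate 2 nM [3H]-anandamide plus 2 μM anandamide added for 10 min at 37 °C. [3H]-ethanolamine in the aqueous phase after chloroform/methanol extraction was scintillation counted; IC50 over 0.1 nM–1 μM.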

In the case of `CCCCn1c(=O)n(C(=O)N2CCCC2)c2cnc(-c3ccccc3)nc21` [Example 306, 9-Butyl-2-phenyl-7-(pyrrolidin-1-ylcarbonyl)-7,9-dihydro-8H-purine-8-one], the inhibition at 0.1 µM worked out at 99% and the IC50 amounted to 15 nM.

Turning to `CC(C)Cn1c(=O)n(C(=O)N2CCCC2)c2cnc(-c3ccccc3)nc21` [Example 307], the inhibition at 0.1 µM came out at 96% and the IC50 came to 41 nM.

Turning to `O=C(N1CCCC1)n1c(=O)n(Cc2ccccc2)c2nc(-c3ccccc3)ncc21` [Example 308], the inhibition at 0.1 µM turned out to be 66% and the IC50 turned out to be 74 nM.

On to `O=C(N1CCCC1)n1c(=O)n(CCN2CCCC2)c2nc(-c3ccccc3)ncc21` [Example 310], for which the inhibition at 0.1 µM was determined as 5% and the IC50 is more than 100 nM.

For `Cn1c(=O)n(C(=O)N2CCCC2)c2cnc(-c3cccc(O)c3)nc21` [Example 311, 2-(3-hydroxyphenyl)-9-methyl-7-(pyrrolidin-1-ylcarbonyl)-7,9-dihydro-8H-purine-8-one], the inhibition at 0.1 µM was determined as 88% and the half-inhibitory concentration (IC50) was found to be 53 nM. For the compound `Cn1c(=O)n(C(=O)N2CCCC2)c2nc(CCc3ccc(C(F)(F)F)cc3)ncc21` [Example 312, 7-methyl-9-(pyrrolidin-1-ylcarbonyl)-2-{2-[4-(trifluoromethyl)phenyl]ethyl}-7,9-dihydro-8H-purine-8-one], the inhibition at 0.1 µM amounted to 99% and the IC50 was 8 nM. For `Cn1c(=O)n(C(=O)N2CCCC2)c2nc(CCc3cccc(C(F)(F)F)c3)ncc21` [Example 313, 7-Methyl-9-(pyrrolidin-1-ylcarbonyl)-2-{2-[3-(trifluoromethyl)phenyl]ethyl}-7,9-dihydro-8H-purine-8-one] the same measures were 103% and 11 nM. For `Cn1c(=O)n(C(=O)N2CCCC2)c2nc(CCc3ccc(F)cc3)ncc21` [Example 314, 2-[2-(4-Fluorophenyl)ethyl]-7-methyl-9-(pyrrolidin-1-ylcarbonyl)-7,9-dihydro-8H-purine-8-one] the same measures were 100% and 37 nM. Take `Cn1c(=O)n(C(=O)N2CCCC2)c2nc(CCc3cccc(F)c3)ncc21` [Example 315, 2-[2-(3-Fluorophenyl)ethyl]-7-methyl-9-(pyrrolidin-1-ylcarbonyl)-7,9-dihydro-8H-purine-8-one]: the inhibition at 0.1 µM was 95% and the IC50 worked out at 19 nM. Take `Cn1c(=O)n(C(=O)N2CCCC2)c2cnc(C3CCCCC3)nc21` [Example 316, 2-cyclohexy-9-methyl-7-(pyrrolidin-1-ylcarbonyl)-7,9-dihydro-8H-purine-8-one]: the inhibition at 0.1 µM came to 80% and the IC50 was determined as 55 nM. With `Cn1c(=O)n(C(=O)N2CCCC2)c2cnc(-c3cccc(N)c3)nc21` [Example 317, 2-(3-aminophenyl)-9-methyl-7-(pyrrolidin-1-ylcarbonyl)-7,9-dihydro-8H-purine-8-one], the inhibition at 0.1 µM amounted to 103% and the IC50 is less than 10 nM. Consider `COc1cccc(-c2ncc3c(n2)n(C(=O)N(C)C)c(=O)n3C)c1` [Example 322, 2-(3-Methoxyphenyl)-N,N,7-trimethyl-8-oxo-7,8-dihydro-9H-purine-9-carboxamide], for which the inhibition at 0.1 µM amounted to 45%.

For the compound `CN(C)C(=O)n1c(=O)n(C)c2cnc(-c3ccc(C(F)(F)F)cc3)nc21` [Example 326, N,N,7-Trimethyl-8-oxo-2-[4-(trifluoromethyl)phenyl]-7,8-dihydro-9H-purine-9-carboxamide], the inhibition at 0.1 µM amounted to 83% and the IC50 came to 52 nM. Consider `CN(C)C(=O)n1c(=O)n(C)c2cnc(-c3ccc(C(F)F)cc3)nc21` [Example 330, 2-[4-(Difluoromethyl)phenyl]-N,N,7-trimethyl-8-oxo-7,8-dihydro-9H-purine-9-carboxamide], for which the inhibition at 0.1 µM was 62% and the IC50 was determined as 95 nM. Regarding `CN(C)C(=O)n1c(=O)n(C)c2cnc(-c3cccc(OC(F)F)c3)nc21` [Example 331, 2-[3-(Difluoromethoxy)phenyl]-N,N,7-trimethyl-8-oxo-7,8-dihydro-9H-purine-9-carboxamide], the inhibition at 0.1 µM was 77% and the IC50 was 33 nM.

Take `CN(C)C(=O)n1c(=O)n(C)c2cnc(-c3cccc(C(F)F)c3)nc21` [Example 332, 2-[3-(Difluoromethyl)phenyl]-N,N,7-trimethyl-8-oxo-7,8-dihydro-9H-purine-9-carboxamide]: the inhibition at 0.1 µM came out at 78% and the IC50 came to 38 nM. As to `CN(C)C(=O)n1c(=O)n(C)c2cnc(-c3ccc(OCC(F)(F)F)cc3)nc21` [Example 334, N,N,7-Trimethyl-8-oxo-2-[4-(2,2,2-trifluoroethoxy)phenyl]-7,8-dihydro-9H-purine-9-carboxamide], the inhibition at 0.1 µM stood at 88% and the half-inhibitory concentration (IC50) came out at 25 nM. Consider `CN(C)C(=O)n1c(=O)n(C)c2cnc(-c3cccc(OCC(F)F)c3)nc21` [Example 335, 2-[3-(2,2-Difluoroethoxy)phenyl]-N,N,7-trimethyl-8-oxo-7,8-dihydro-9H-purine-9-carboxamide], for which the inhibition at 0.1 µM worked out at 74% and the half-inhibitory concentration (IC50) came to 33 nM. `CN(C)C(=O)n1c(=O)n(C)c2cnc(-c3cccc(OCC(F)(F)F)c3)nc21` [Example 336]: the inhibition at 0.1 µM worked out at 85% and the IC50 was found to be 20 nM. On the same counts, the results for `CN(C)C(=O)n1c(=O)n(C)c2cnc(-c3ccc(OC(F)F)cc3)nc21` [Example 337, 2-[4-(Difluoromethoxy)phenyl]-N,N,7-trimethyl-8-oxo-7,8-dihydro-9H-purine-9-carboxamide] are 82% and 46 nM. For `CN(C)C(=O)n1c(=O)n(C)c2cnc(-c3ccc(C(F)(F)F)cc3F)nc21` [Example 338, 2-[2-Fluoro-4-(trifluoromethyl)phenyl]-N,N,7-trimethyl-8-oxo-7,8-dihydro-9H-purine-9-carboxamide] the same measures were 83% and 21 nM. As to `CN(C)C(=O)n1c(=O)n(C)c2cnc(-c3ccc(C(F)(F)F)cc3Cl)nc21` [Example 339, 2-[2-Chloro-4-(trifluoromethyl)phenyl]-N,N,7-trimethyl-8-oxo-7,8-dihydro-9H-purine-9-carboxamide], the inhibition at 0.1 µM turned out to be 80% and the IC50 came out at 7 nM.

On to `COc1ccc(-c2ncc3c(n2)n(C(=O)N2CCC2)c(=O)n3C)cc1` [Example 356, 9-(Azetidin-1-ylcarbonyl)-2-(4-methoxyphenyl)-7-methyl-7,9-dihydro-8H-purine-8-one], for which the inhibition at 0.1 µM is 72% and the half-inhibitory concentration (IC50) amounted to 95 nM.

With `COc1cccc(Cc2ncc3c(n2)n(C)c(=O)n3C(=O)N2CCC2)c1` [Example 375, 7-(Azetidin-1-ylcarbonyl)-2-(3-methoxybenzyl)-9-methyl-7,9-dihydro-8H-purine-8-one], the inhibition at 0.1 µM was 94% and the IC50 turned out to be 24 nM. As for `Cn1c(=O)n(C(=O)N2CCC2)c2cnc(Cc3cccc(C(F)(F)F)c3)nc21` [Example 379, 7-(Azetidin-1-ylcarbonyl)-9-methyl-2-[3-(trifluoromethyl)benzyl]-7,9-dihydro-8H-purine-8-one], the inhibition at 0.1 µM came out at 96% and the IC50 is 13 nM. Turning to `COCCCc1ncc2c(n1)n(C)c(=O)n2C(=O)N1CC(c2ccc(C(F)(F)F)cc2)C1` [Example 380, 2-(3-methoxypropyl)-9-methyl-7-({3-[4-(trifluoromethyl)phenyl]azetidin-1-yl}carbonyl)-7,9-dihydro-8H-purine-8-one], the inhibition at 0.1 µM worked out at 100% and the IC50 came out at 8 nM. Turning to `COCCCc1ncc2c(n1)n(C)c(=O)n2C(=O)N1CC(c2ccc(F)cc2)C1` [Example 381], the inhibition at 0.1 µM was 84% and the IC50 stood at 8 nM. Regarding `COCCCc1ncc2c(n1)n(C)c(=O)n2C(=O)N1CC(c2cccc(F)c2)C1` [Example 382], the inhibition at 0.1 µM amounted to 80% and the IC50 amounted to 5 nM. On the same counts, the results for `COCCCc1ncc2c(n1)n(C)c(=O)n2C(=O)N1CC(c2ccccc2)C1` [Example 383] are 65% and 14 nM. Take `COCCCc1ncc2c(n1)n(C)c(=O)n2C(=O)N1CC(Oc2ccccc2)C1` [Example 384]: the inhibition at 0.1 µM amounted to 8% and the IC50 was more than 100 nM. For the compound `CCOc1ccc(C2CN(C(=O)n3c(=O)n(C)c4nc(CCCOC)ncc43)C2)cc1` [Example 385], the inhibition at 0.1 µM is 99% and the IC50 stood at 5 nM. As to `COCCCc1ncc2c(n1)n(C)c(=O)n2C(=O)N1CC(c2cccc(C(F)(F)F)c2)C1` [Example 386], the inhibition at 0.1 µM stood at 93% and the IC50 was 7 nM. Regarding `CCOc1cccc(C2CN(C(=O)n3c(=O)n(C)c4nc(CCCOC)ncc43)C2)c1` [Example 387], the inhibition at 0.1 µM was 92% and the IC50 was found to be 22 nM.
